Laboratory results taken from PubChem BioAssay (NCI).
Values joined by “and” are separate entries in the source; they are usually repeats but may differ in a detail not shown here. Equal values may be shown once.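 Growth conditions: 96-well plates. Treatment: test compound, 48 hours, 5 concentrations. Analysis: linear interpolation between bracketing concentrations; unreached endpoints set to highest concentration. Abbreviation: GI50, concentration required for 50% inhibition of growth. The concentration for full growth arrest is given as TGI.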

Key:
Assay in all cases: DTP human tumour cell line panel, 48 h
SNB-75 CNS = tested on: SNB-75 CNS
TK-10 renal = tested on: TK-10 renal
IGROV1 ovarian = tested on: IGROV1 ovarian
OVCAR-5 ovarian = tested on: OVCAR-5 ovarian
UACC-257 melanoma = tested on: UACC-257 melanoma
HCT-116 colon = tested on: HCT-116 colon
MDA-MB-435 = tested on: MDA-MB-435
PC-3 prostate = tested on: PC-3 prostate
NCI-H23 lung = tested on: NCI-H23 lung
HT29 colon = tested on: HT29 colon

| SMILES | GI50 (SNB-75 CNS) | TGI (SNB-75 CNS) | GI50 (TK-10 renal) | TGI (TK-10 renal) | GI50 (IGROV1 ovarian) | TGI (IGROV1 ovarian) | GI50 (OVCAR-5 ovarian) [µM] | TGI (OVCAR-5 ovarian) | GI50 (UACC-257 melanoma) [µM] | TGI (UACC-257 melanoma) | GI50 (HCT-116 colon) [µM] | TGI (HCT-116 colon) | TGI (MDA-MB-435) | TGI (PC-3 prostate) | GI50 (NCI-H23 lung) [µM] | TGI (NCI-H23 lung) | GI50 (HT29 colon) | TGI (HT29 colon) | GI50 (MDA-MB-435) [µM] | GI50 (PC-3 prostate) [µM] |
| --- | --- | --- | --- | --- | --- | --- | --- | --- | --- | --- | --- | --- | --- | --- | --- | --- | --- | --- | --- | --- |
| O=NN(CCCl)C(=O)NC1CCCCC1 | 23.3 µM and 42.1 µM | 64.5 µM and 112 µM and 108 µM | 28 µM and 87.4 µM | 86.8 µM and 152 µM and 177 µM | 19.7 µM and 73.2 µM | 57.4 µM and 150 µM and 162 µM | 247 | 168 µM and 363 µM | 23.7 | 73.8 µM and 127 µM and 82.4 µM | 21 | 50.2 µM and 105 µM | 102 µM | 136 µM | 116 | 152 µM and 235 µM | 36.6 µM and 64.3 µM | 139 µM and 165 µM | – | – |
| CCN1CCN(c2nc(NNC(=O)c3ccccc3)nc(N3CCN(C(c4ccccc4)c4ccccc4)CC3)n2)CC1 | 3.96 µM | 18.1 µM | 3.31 µM | 11.4 µM | 3.09 µM | 12.8 µM | 6.03 | 21.4 µM | 1.9 | 4.25 µM | 1.78 | 3.41 µM | 3.78 µM | 7.57 µM | 3.17 | 11.1 µM | 2.95 µM | 13.4 µM | 1.94 | 1.9 |
| O=C(C(=O)c1cc(Br)ccc1O)c1cc(Br)ccc1O | 3.26 µM | 29.4 µM | 3.44 µM | 17.9 µM | 2.57 µM | 8.58 µM | 22.2 | 74.8 µM | 2.21 | 8.43 µM | 3.38 | 12.7 µM | 9.25 µM | 15.7 µM | 3.38 | 19.1 µM | 14.6 µM | > 100 µM | 2.84 | 3.13 |
| Cc1ccc(C2=C(Cl)C(=O)C(c3ccc(C)cc3)=C(Cl)C2=O)cc1 | – | > 100 µM | – | > 100 µM | – | > 100 µM | – | > 100 µM | – | > 100 µM | – | > 100 µM | > 100 µM | > 100 µM | – | > 100 µM | – | > 100 µM | – | – |
| COc1ccc(/C(CC2OC(=O)c3ccccc32)=N\NC(N)=O)cc1 (stereo not given) | – | > 100 µM | – | > 100 µM | – | > 100 µM | – | > 100 µM | – | > 100 µM | – | > 100 µM | > 100 µM | > 100 µM | – | > 100 µM | – | > 100 µM | – | – |
| CC1OC(OC2C(O[C@H]3CC[C@@]4(C)C(=CC[C@H]5[C@@H]6C[C@@H]7O[C@]8(CC[C@@H](C)CO8)[C@@H](C)[C@@H]7[C@@]6(C)CC[C@@H]54)C3)OC(CO)C(OC3OC(CO)C(O)C3O)C2O)C(O)C(O)C1O (stereo not given in full) | – | 1.62 µM | – | 2.85 µM and 2.24 µM | 0.45 µM | 1.61 µM and 1.62 µM | 1.32 | 1.53 µM and 2.59 µM | 1.14 | 1.71 µM and 2.35 µM | 1.26 | 1.6 µM and 2.52 µM | 2 µM and 1.57 µM | 1.48 µM and 1.78 µM | 1.23 | 1.6 µM and 2.47 µM | 1.01 µM | 1.62 µM and 2.17 µM | 0.434 | 0.533 |
| CCN(CC)CCOc1ccc2c(C)c(C(=O)OC)oc2c1C(=O)/C=C/c1ccc(OC)cc1 | 2.81 µM | 8.44 µM | 1.94 µM | 5.14 µM | 0.246 µM | 2.75 µM | 2.32 | 6.99 µM | 19.8 | 36.9 µM | 57.8 | > 100 µM | 15.8 µM | 5.46 µM | 2.93 | 8.34 µM | 1.9 µM | 13 µM | 5.54 | 2.01 |
| NC(N)=N/N=C/c1c(-c2ccncc2)nc2sc(Cl)cn12 | 4.89 µM | 18.9 µM | 5.26 µM | 10.9 µM | 42.7 µM | > 100 µM | 7.1 | 21.4 µM | 21.5 | 40.6 µM | 2.55 | 6.22 µM | 13.6 µM | 18.8 µM | 10 | 24.1 µM | 17.1 µM | > 51.3 µM | 6.63 | 5.8 |
| CN(C)c1ccc(N=C2C=CC(=C(C#N)C#N)c3ccccc32)cc1 | – | 5.71 µM | – | 16.4 µM | – | 6.11 µM | – | 10.6 µM | – | 10.9 µM | – | 5.26 µM | 0.191 µM | 10.8 µM | – | 4.19 µM | – | 10.4 µM | – | – |
| CC1=C2[C@@H](CC1)[C@]1(C)O[C@@](C3CC3)(C[C@H]1OC(=O)CO)[C@H]2OC(=O)/C=C/c1ccccc1 | 12.6 µM | 30.5 µM | 18.7 µM | 33.8 µM | 19.7 µM | 42.7 µM | 17.5 | 36.5 µM | 17.7 | 32.9 µM | 16 | 30.9 µM | 30.6 µM | 28.4 µM | 16.6 | 36 µM | 16.1 µM | 32.2 µM | 16.1 | 13 |
| Nc1ncnc2c1nc(Cl)n2C1OC(CO)C(O)C1O (stereo not given) | – | > 56.6 µM | – | > 32.7 µM | – | > 100 µM | – | 98.6 µM | – | > 100 µM | – | > 100 µM | > 100 µM | > 71.2 µM | – | > 100 µM | – | > 83 µM | – | – |
| COc1cccc(C2C(C#N)=C(N)Oc3cc4c(cc32)OCO4)c1 (stereo not given) | 0.0275 µM | 46.5 µM | 0.728 µM | 48.4 µM | 0.305 µM | 30.8 µM | 0.661 | > 100 µM | 0.0471 | 28.1 µM | 0.0459 | 11 µM | 0.0829 µM | 39.5 µM | 0.0694 | 15.8 µM | 0.0417 µM | 2.42 µM | 0.0162 | 0.0534 |
| O=C(O)Cn1ccc(=O)c2cc([N+](=O)[O-])ccc21 | – | > 100 µM | – | > 100 µM | – | > 100 µM | – | > 100 µM | – | > 100 µM | – | > 100 µM | > 100 µM | > 100 µM | – | > 100 µM | – | > 100 µM | – | – |
| O=C(OC[C@@H]1CO1)c1cccc2c(=O)c3ccccc3[nH]c12 | 0.288 µM | 1.49 µM | 0.646 µM | – | 0.329 µM | 1.83 µM | 0.474 | 4.17 µM | 0.517 | 4.31 µM | 0.127 | 10.1 µM | 1.24 µM | > 21.8 µM | 0.288 | 1.25 µM | 0.311 µM | 3.17 µM | 0.281 | 0.381 |
| CN(C)c1ccc(C2CC(C)(O)Oc3cc4c(cc32)OCO4)cc1 (stereo not given) | – | 75.1 µM | – | > 100 µM | – | > 100 µM | – | > 100 µM | – | > 100 µM | – | > 100 µM | 74.1 µM | > 100 µM | – | > 100 µM | – | 76.1 µM | – | – |
| N#CCCN(CCC#N)c1ccc(C=Nc2ccc(F)cc2)cc1 | – | > 100 µM | – | > 92.6 µM | – | > 100 µM | – | > 100 µM | – | > 100 µM | – | > 100 µM | > 100 µM | > 100 µM | – | > 100 µM | – | > 100 µM | – | – |
| O=c1nc2[nH]c3c(-c4n[nH]c(=O)[nH]c4=O)cccc3c2n[nH]1 | > 100 µM | > 100 µM | > 100 µM | > 100 µM | > 100 µM | > 100 µM | > 100 | > 100 µM | > 100 | > 100 µM | > 100 | > 100 µM | > 100 µM | > 100 µM | > 100 | > 100 µM | > 100 µM | > 100 µM | > 100 | > 100 |
| CCCCC[C@@H](C/C=C/CCC(=O)NC/C(=C/Cl)[C@H]1C(=O)C(C)(C)C(=O)[C@@H](C)[C@@]1(C)O)OC | 20.5 µM | 44.7 µM | 20.8 µM | 40.5 µM | 16.4 µM | 31.3 µM | 18.9 | 34.7 µM | 18.4 | 34.3 µM | 14 | 27.4 µM | 36.3 µM | 43.5 µM | 17 | 33.9 µM | 14.5 µM | 30.9 µM | 18.7 | 19.6 |
